Reference: US20250066344A1 (BRISTOL-MYERS SQUIBB COMPANY, priority 2021, published 2025)

Molecular target: T1, human RXFP1 (Homo sapiens, UniProt Q9HBX9)
T1 construct: expressed in transfected cells
T1 sequence (Q9HBX9 1-757): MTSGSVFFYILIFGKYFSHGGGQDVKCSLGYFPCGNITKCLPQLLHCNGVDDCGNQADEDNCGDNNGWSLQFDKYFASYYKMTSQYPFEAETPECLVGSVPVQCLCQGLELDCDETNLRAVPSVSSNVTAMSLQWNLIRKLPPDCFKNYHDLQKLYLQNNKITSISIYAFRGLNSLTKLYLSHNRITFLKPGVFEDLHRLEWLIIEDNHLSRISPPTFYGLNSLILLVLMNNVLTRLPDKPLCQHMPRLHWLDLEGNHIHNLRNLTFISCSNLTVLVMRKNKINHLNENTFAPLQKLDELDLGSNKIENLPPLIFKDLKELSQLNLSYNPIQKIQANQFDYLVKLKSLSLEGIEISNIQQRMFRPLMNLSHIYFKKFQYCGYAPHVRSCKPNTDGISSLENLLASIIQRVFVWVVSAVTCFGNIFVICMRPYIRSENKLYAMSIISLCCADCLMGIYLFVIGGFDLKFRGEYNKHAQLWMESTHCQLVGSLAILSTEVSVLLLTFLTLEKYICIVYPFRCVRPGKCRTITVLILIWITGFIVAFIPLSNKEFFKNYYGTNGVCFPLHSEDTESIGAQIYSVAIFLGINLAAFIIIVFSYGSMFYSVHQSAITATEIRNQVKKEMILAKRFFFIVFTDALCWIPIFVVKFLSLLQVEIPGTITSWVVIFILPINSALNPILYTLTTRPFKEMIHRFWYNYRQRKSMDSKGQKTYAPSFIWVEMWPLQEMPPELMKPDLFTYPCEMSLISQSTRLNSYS
Assay: RXFP1 cyclic adenosine monophosphate (cAMP) assay, hRXFP1 HEK293
Type: cell-based
Details: HEK293 cells stably expressing human RXFP1; 30 min at room temperature; HTRF cAMP
In short: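 HEK293 cells stably expressing human RXFP1 were exposed to compounds (0.010 nM–50 μM, 2% DMSO) for 30 min at room temperature in HBSS/HEPES buffer with 0.5 mM IBMX. Intracellular cAMP was measured by HTRF against a cAMP standard curve; EC50 from 4-parameter logistic fit.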

COc1ccc(C#CC(C)(C)O)cc1C(=O)Nc1cc2c(cc1C(=O)Nc1ccc(F)c(C(F)(F)F)c1)OC(F)(F)O2 [Example 58, 2,2-difluoro-N-(4-fluoro-3-(trifluoromethyl)phenyl)-6-(5-(3-hydroxy-3-methylbut-1-yn-1-yl)-2-methoxybenzamido) benzo[d][1,3]dioxole-5-carboxamide]
EC50: 1060 nM

COc1ccc(-c2nc3c(s2)CNCC3)cc1C(=O)Nc1cc2c(cc1C(=O)Nc1ccc(F)c(C(F)(F)F)c1)OC(F)(F)O2 [Example 52, 2,2-difluoro-N-(4-fluoro-3-(trifluoromethyl)phenyl)-6-(2-methoxy-5-(4,5,6,7-tetrahydrothiazolo[5,4-c]pyridin-2-yl)benzamido)benzo[d][1,3]dioxole-5-carboxamide]
EC50: 683 nM

COc1ccc(C2=NOC3CN(CC(C)(C)O)CC23)cc1C(=O)Nc1cc2c(cc1C(=O)Nc1ccc(F)c(C(F)(F)F)c1)OC(F)(F)O2 (stereo not drawn) [Example 45, 2,2-difluoro-N-(4-fluoro-3-(trifluoromethyl)phenyl)-6-(5-(5-(2-hydroxy-2-methylpropyl)-3a,5,6,6a-tetrahydro-4H-pyrrolo[3,4-d]isoxazol-3-yl)-2-methoxybenzamido)benzo[d][1,3]dioxole-5-carboxamide]
EC50: 6 nM

COc1ccc(C2=NOC3COCC23)cc1C(=O)Nc1cc2nc(C)sc2cc1C(=O)Nc1ccc(F)c(C(F)(F)F)c1 (single isomer, unassigned) [Example 2, N-(4-fluoro-3-(trifluoromethyl)phenyl)-5-(2-methoxy-5-(3a,4,6,6a-tetrahydrofuro[3,4-d]isoxazol-3-yl)benzamido)-2-methylbenzo[d]thiazole-6-carboxamide]
EC50: 1000 nM

COc1ccc(N2CC(CN)CC2=O)cc1C(=O)Nc1cc2nc(C)sc2cc1C(=O)Nc1ccc(F)c(C(F)(F)F)c1 (stereo not drawn) [Example 21, 5-(5-(4-(ami-nomethyl)-2-oxopyrrolidin-1-yl)-2-meth-oxybenzami-do)-N-(4-fluoro-3-(tri-fluoromethyl)-phenyl)-2-methylbenzo [d]thiazole-6-carboxamide]
EC50: 4100 nM

COc1ccc(-c2cc([C@H](OC(=O)NC3CCC3)C(F)(F)F)ccc2F)cc1C(=O)Nc1cc2sc(C)nc2cc1C(=O)Nc1ccc(F)c(C(F)(F)F)c1 [Example 16, (S)-2,2,2-trifluoro-1-(6-fluoro-3′-((5-((4-fluoro-3-(trifluorometh-yl)phenyl)car-bamoyl)-2-methylbenzo [d]thiazol-6-yl)carbamoyl)-4′-methoxy-[1,1′-biphen-yl]-3-ylethylcyclobutylcar-bamate]
EC50: 46 nM

COc1ccc(C(=O)N2CC(C)(O)C2)cc1C(=O)Nc1cc2c(cc1C(=O)Nc1ccc(F)c(C(F)(F)F)c1)OC(F)(F)O2 [Example 39, 2,2-difluoro-N-(4-fluoro-3-(trifluoromethyl)phenyl)-6-(5-(3-hydroxy-3-methylazetidine-1-carbonyl)-2-methoxybenzamido) benzo[d][1,3]dioxole-5-carboxamide]
EC50: 90 nM

COc1ccc(C(=O)N2CCCC(CO)C2)cc1C(=O)Nc1cc2c(cc1C(=O)Nc1ccc(F)c(C(F)(F)F)c1)OC(F)(F)O2 (stereo not drawn) [Example 37, 2,2-difluoro-N-(4-fluoro-3-(trifluoromethyl)phenyl)-6-(5-(3-(hydroxymethyl)piperidine-1-carbonyl)-2-methoxybenzamido) benzo[d][1,3]dioxole-5-carboxamide]
EC50: 56 nM

COc1ccc(-c2cnc3n2CCN(C2COC2)C3)cc1C(=O)Nc1cc2c(cc1C(=O)Nc1ccc(F)c(C(F)(F)F)c1)OC(F)(F)O2 [Example 81, 2,2-difluoro-N-(4-fluoro-3-(trifluoromethyl)phenyl)-6-(2-methoxy-5-(7-(oxetan-3-yl)-5,6,7,8-tetrahydroimidazo[1,2-a]pyrazin-3-yl)benzamido)benzo[d] [1,3]dioxole-5-carboxamide]
EC50: 282 nM
